≈ marks a conversion by molar mass, not a printed value. Blank lines part the entries; values can stand above or below the compound they belong to.
Legend:
Assay in all cases: ≥ marks a high value that may be exact or a test limit, other limits are often not marked, values filed in µg/mL are converted to µM
[1] = test system: Escherichia coli ATCC 25922
[2] = test system: Escherichia coli CVCC 1515
Escherichia coli K88 = test system: Escherichia coli K88
Escherichia coli UB1005 = test system: Escherichia coli UB1005
[3] = test system: Pseudomonas aeruginosa ATCC 27853
[4] = test system: Salmonella enterica subsp. enterica serovar Typhimurium ATCC 14028
[5] = test system: Staphylococcus aureus ATCC 29213
[6] = test system: Staphylococcus epidermidis ATCC 12228
[7] = test system: Bacillus subtilis ATCC 23857
[8] = test system: Candida albicans ATCC 90028
[9] = test system: Cryptococcus neoformans ATCC 28957
[10] = test system: Fusarium oxysporum f.sp. vasinfectum
Fusarium oxysporum = test system: Fusarium oxysporum
Fusarium solani = test system: Fusarium solani
[11] = test system: Pectobacterium carotovorum
[12] = test system: Pseudomonas syringae pv. tabaci
Ramulariopsis gossypii = test system: Ramulariopsis gossypii
[13] = test system: Staphylococcus aureus ATCC 25923
Trichoderma asperellum = test system: Trichoderma asperellum
[14] = test system: Listeria monocytogenes ATCC 19115
[15] = test system: Staphylococcus aureus CMCC 26003
[16] = test system: Bacillus subtilis CMCC 63501
Acinetobacter baumannii = test system: Acinetobacter baumannii
Escherichia coli K99 = test system: Escherichia coli K99
Escherichia coli = test system: Escherichia coli
Klebsiella pneumoniae = test system: Klebsiella pneumoniae
[17] = test system: Pseudomonas aeruginosa CICC 21625
[18] = test system: Pseudomonas aeruginosa CICC 21630
[19] = test system: Pseudomonas aeruginosa PAO1
Pseudomonas aeruginosa = test system: Pseudomonas aeruginosa
[20] = test system: Salmonella enterica subsp. enterica serovar Pullorum C79-13
[21] = test system: Salmonella enterica subsp. enterica serovar Typhimurium C77-31
[22] = test system: Aspergillus niger CECT 2694
[23] = test system: Erwinia amylovora PMV 6076
[24] = test system: Fusarium oxysporum f. sp. lycopersici ATCC 201829
[25] = test system: Penicillium expansum EPS 26
[26] = test system: Pseudomonas syringae EPS 94
[27] = test system: Rhizopus stolonifer CECT 2344
[28] = test system: Xanthomonas vesicatoria 2133-2

SMILES: CC(C)C[C@H](NC(=O)[C@H](Cc1c[nH]c2ccccc12)NC(=O)[C@H](C)NC(=O)[C@H](CCCCN)NC(=O)[C@H](C)NC(=O)[C@H](C)N)C(=O)N[C@@H](CCCCN)C(=O)N[C@@H](CC(C)C)C(=O)N[C@@H](Cc1c[nH]c2ccccc12)C(=O)N[C@@H](C)C(=O)N[C@@H](CCCCN)C(=O)N[C@@H](C)C(=O)N[C@@H](C)C(N)=O [AAKAWLKLWAKAA]
MIC [1]: 2 µM (≈ 2.85 µg/mL) | MIC [2]: 16 µM (≈ 22.8 µg/mL) | MIC (Escherichia coli K88): 8 µM (≈ 11.4 µg/mL) | MIC (Escherichia coli UB1005): 16 µM (≈ 22.8 µg/mL) | MIC [3]: 64 µM (≈ 91.3 µg/mL) | MIC [4]: 32 µM (≈ 45.7 µg/mL) | MIC [5]: 64 µM (≈ 91.3 µg/mL) | MIC [6]: 64 µM (≈ 91.3 µg/mL)

SMILES: CC[C@H](C)[C@H](NC(=O)[C@H](CCCCN)NC(=O)[C@@H](NC(=O)[C@@H](NC(=O)[C@H](CC(N)=O)NC(=O)[C@H](Cc1ccc(O)cc1)NC(=O)[C@H](Cc1ccccc1)NC(=O)[C@@H](N)Cc1ccccc1)C(C)C)[C@@H](C)CC)C(=O)N[C@@H](Cc1ccc(O)cc1)C(=O)NCC(=O)N[C@@H](CC(N)=O)C(=O)N[C@@H](CCSC)C(=O)N[C@@H](C)C(=O)NCC(=O)N[C@@H](CCCN=C(N)N)C(=O)N[C@H](C(=O)N[C@@H](CO)C(=O)N[C@@H](CCCCN)C(N)=O)[C@@H](C)CC [FFYNVIKIYGNMAGRISK]
MIC [7]: ≥ 64 µM | MIC [8]: ≥ 128 µM | MIC [9]: ≥ 32 µM | MIC [1]: 128 µM (≈ 271 µg/mL) | MIC [10]: ≥ 128 µM | MIC (Fusarium oxysporum): ≥ 128 µM | MIC (Fusarium solani): ≥ 128 µM | MIC [11]: 16 µM (≈ 33.9 µg/mL) | MIC [12]: ≥ 128 µM | MIC (Ramulariopsis gossypii): ≥ 64 µM | MIC [13]: 128 µM (≈ 271 µg/mL) | MIC (Trichoderma asperellum): ≥ 256 µM

SMILES: CC[C@H](C)[C@H](NC(=O)[C@H](CCCN=C(N)N)NC(=O)[C@H](CCCN=C(N)N)NC(=O)[C@H](CC(C)C)NC(=O)[C@@H](N)Cc1ccccc1)C(=O)N[C@@H](CCCN=C(N)N)C(=O)N[C@H](C(=O)N[C@H](C(=O)N1CCC[C@H]1C(=O)N[C@@H](Cc1c[nH]c2ccccc12)C(=O)N[C@H](C(=O)N[C@@H](CC(N)=O)C(=O)N1CCC[C@H]1C(=O)N1CCC[C@H]1C(=O)N[C@@H](Cc1ccccc1)C(=O)N[C@@H](CC(C)C)C(=O)N[C@@H](CCC(N)=O)C(=O)N[C@@H](CCC(N)=O)C(=O)N[C@H](C(N)=O)[C@@H](C)O)C(C)C)[C@@H](C)O)C(C)C [FLRRIRVTPWVNPPFLQQT]
MIC [14]: ≥ 54 µM | MIC [15]: ≥ 108 µM

SMILES: CC[C@H](C)[C@H](NC(=O)[C@H](CCCN=C(N)N)NC(=O)[C@H](CCCN=C(N)N)NC(=O)[C@H](Cc1c[nH]c2ccccc12)NC(=O)[C@@H](N)Cc1ccccc1)C(=O)N[C@@H](CCCN=C(N)N)C(=O)N[C@H](C(=O)N[C@H](C(=O)N1CCC[C@H]1C(=O)N[C@@H](Cc1c[nH]c2ccccc12)C(=O)N[C@H](C(=O)N[C@@H](CC(N)=O)C(=O)N1CCC[C@H]1C(=O)N1CCC[C@H]1C(=O)N[C@@H](Cc1ccccc1)C(=O)N[C@@H](CC(C)C)C(=O)N[C@@H](CCC(N)=O)C(=O)N[C@@H](CCC(N)=O)C(=O)N[C@H](C(N)=O)[C@@H](C)O)C(C)C)[C@@H](C)O)C(C)C [FWRRIRVTPWVNPPFLQQT]
MIC [16]: ≥ 105 µM | MIC [14]: 26.2 µM (≈ 64 µg/mL) | MIC [15]: 26.2 µM (≈ 64 µg/mL)

Results, then the compound that gave them:

MIC (Acinetobacter baumannii): 2 µM (≈ 5.79 µg/mL) | MIC [1]: 2 µM (≈ 5.79 µg/mL) | MIC (Escherichia coli K88): 2 µM (≈ 5.79 µg/mL) | MIC (Escherichia coli K99): 2 µM (≈ 5.79 µg/mL) | MIC (Escherichia coli UB1005): 2 µM (≈ 5.79 µg/mL) | MIC (Escherichia coli): 2 µM (≈ 5.79 µg/mL) | MIC (Klebsiella pneumoniae): 8 µM (≈ 23.2 µg/mL) | MIC [3]: 8 µM (≈ 23.2 µg/mL) | MIC [17]: ≥ 32 µM | MIC [18]: 8 µM (≈ 23.2 µg/mL) | MIC [19]: 4 µM (≈ 11.6 µg/mL) | MIC (Pseudomonas aeruginosa): 32 µM (≈ 92.6 µg/mL) | MIC [20]: 2 µM (≈ 5.79 µg/mL) | MIC [4]: 4 µM (≈ 11.6 µg/mL) | MIC [21]: 2 µM (≈ 5.79 µg/mL)
SMILES: CC(C)C[C@H](NC(=O)[C@@H]1CCCN1C(=O)[C@H](CCCN=C(N)N)NC(=O)[C@H](CC(C)C)NC(=O)[C@H](CC(C)C)NC(=O)[C@@H]1CCCN1C(=O)[C@H](CCCN=C(N)N)NC(=O)[C@H](CC(C)C)NC(=O)[C@H](CC(C)C)NC(=O)[C@@H]1CCCN1C(=O)[C@H](CCCN=C(N)N)NC(=O)[C@H](CC(C)C)NC(=O)[C@H](CC(C)C)NC(=O)[C@@H]1CCCN1C(=O)[C@H](CCCN=C(N)N)NC(=O)[C@H](CC(C)C)NC(=O)[C@H](CC(C)C)NC(=O)[C@@H]1CCCN1C(=O)[C@H](CCCN=C(N)N)NC(=O)[C@H](CC(C)C)NC(=O)[C@H](CC(C)C)NC(=O)[C@@H]1CCCN1C(=O)[C@H](CCCN=C(N)N)NC(=O)[C@@H](N)CC(C)C)C(N)=O [LRPLLRPLLRPLLRPLLRPLLRPL]

MIC (Acinetobacter baumannii): 2 µM (≈ 4.83 µg/mL) | MIC [1]: 4 µM (≈ 9.66 µg/mL) | MIC (Escherichia coli K88): 2 µM (≈ 4.83 µg/mL) | MIC (Escherichia coli K99): 4 µM (≈ 9.66 µg/mL) | MIC (Escherichia coli UB1005): 4 µM (≈ 9.66 µg/mL) | MIC (Escherichia coli): 4 µM (≈ 9.66 µg/mL) | MIC (Klebsiella pneumoniae): 8 µM (≈ 19.3 µg/mL) | MIC [3]: 32 µM (≈ 77.3 µg/mL) | MIC [17]: ≥ 32 µM | MIC [18]: 16 µM (≈ 38.6 µg/mL) | MIC [19]: 32 µM (≈ 77.3 µg/mL) | MIC (Pseudomonas aeruginosa): 32 µM (≈ 77.3 µg/mL) | MIC [20]: 2 µM (≈ 4.83 µg/mL) | MIC [4]: 4 µM (≈ 9.66 µg/mL) | MIC [21]: 4 µM (≈ 9.66 µg/mL)
SMILES: CC(C)C[C@H](NC(=O)[C@@H]1CCCN1C(=O)[C@H](CCCN=C(N)N)NC(=O)[C@H](CC(C)C)NC(=O)[C@H](CC(C)C)NC(=O)[C@@H]1CCCN1C(=O)[C@H](CCCN=C(N)N)NC(=O)[C@H](CC(C)C)NC(=O)[C@H](CC(C)C)NC(=O)[C@@H]1CCCN1C(=O)[C@H](CCCN=C(N)N)NC(=O)[C@H](CC(C)C)NC(=O)[C@H](CC(C)C)NC(=O)[C@@H]1CCCN1C(=O)[C@H](CCCN=C(N)N)NC(=O)[C@H](CC(C)C)NC(=O)[C@H](CC(C)C)NC(=O)[C@@H]1CCCN1C(=O)[C@H](CCCN=C(N)N)NC(=O)[C@@H](N)CC(C)C)C(N)=O [LRPLLRPLLRPLLRPLLRPL]

MIC [22]: 22.4 µM (≈ 32.7 µg/mL) | MIC [23]: 5.92 µM (≈ 8.65 µg/mL) | MIC [24]: 1.73 µM (≈ 2.53 µg/mL) | MIC [25]: 22.4 µM (≈ 32.7 µg/mL) | MIC [26]: 5.92 µM (≈ 8.65 µg/mL) | MIC [27]: ≥ 35.4 µM | MIC [28]: 2 µM (≈ 2.93 µg/mL)
SMILES: CC[C@H](C)[C@H](NC(=O)[C@H](CCCCN)NC(=O)[C@H](CCCCN)NC(=O)[C@H](Cc1ccccc1)NC(=O)[C@H](CC(C)C)NC(=O)[C@H](CCCCN)NC(=O)[C@@H](N)Cc1c[nH]c2ccccc12)C(=O)N[C@@H](CC(C)C)C(=O)N[C@@H](CCCCN)C(=O)N[C@@H](Cc1ccccc1)C(=O)N[C@@H](CC(C)C)C(N)=O [WKLFKKILKFL]

Source: DBAASP
